Reference: patent publication US20100056524A1, “Compound” (priority 2008, published 2010)
Structures can show the parent of a compound that is named as a salt. Where two headings read alike, the source gives them in different places.

What was measured:
Assay type in all cases: biochemical
[1] = molecular target: T1, CSK (Homo sapiens, UniProt P41240); assay: CSK protein kinase assay; settings: for remaining activity at 10 µM: 10 μM compound; for residual kinase activity CSK: 1 μm compound; for remaining activity at 1 µM: 1 μM compound
T1 construct: All protein kinases were of human origin and encoded full length proteins, unless indicated otherwise; made in house
T1 sequence (P41240 whole entry): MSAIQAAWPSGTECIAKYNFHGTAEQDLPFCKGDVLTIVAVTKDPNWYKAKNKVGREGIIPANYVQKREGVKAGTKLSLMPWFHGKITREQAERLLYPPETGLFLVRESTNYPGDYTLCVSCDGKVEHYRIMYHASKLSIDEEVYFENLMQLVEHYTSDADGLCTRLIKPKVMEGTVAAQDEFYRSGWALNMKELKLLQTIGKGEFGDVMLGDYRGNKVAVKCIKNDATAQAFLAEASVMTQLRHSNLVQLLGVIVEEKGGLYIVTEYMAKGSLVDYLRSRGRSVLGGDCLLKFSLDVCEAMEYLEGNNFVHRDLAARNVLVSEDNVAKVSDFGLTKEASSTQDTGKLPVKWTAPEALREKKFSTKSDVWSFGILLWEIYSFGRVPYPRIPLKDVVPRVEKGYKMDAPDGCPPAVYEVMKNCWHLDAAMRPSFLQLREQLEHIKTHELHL
Source text: (§1) All protein kinases were of human origin and encoded full length proteins, unless indicated otherwise. They were either expressed as glutathione S-transferase (GST) fusion proteins in Escherichia Coli or as hexahistidine (His6)-tagged proteins in insect Sf21 cells. GST fusion proteins were purified by affinity chromatography on glutathione-Sepharose, and His6-tagged proteins on nickel/nitriloacetate-agarose. The procedures for expressing some of the protein kinases used herein have been detailed previously.^8,9 The following sections outline the DNA vectors synthesised and the procedures used to express and purifying protein kinases that have not been reported previously.
(§2) All assays (25.5 μl) were carried out at room temperature (21° C.) and were linear with respect to time and enzyme concentration under the conditions used. Assays were performed for 30 min using Multidrop Micro reagent dispensers (Thermo Electron Corporation, Waltham, Mass. 02454, USA) in a 96-well format. The concentration of magnesium acetate in the assays was 10 mM and the [γ-33P] ATP (800 cpm/pmol) was used at 5, 20 or 50 μM as indicated, in order to be at or below the Km for ATP for each enzyme. Protein kinases assayed at 5 μM ATP were: —ERK1, ERK8, PKBα, MARK3, Aurora C. Protein kinases assayed at 20 μM ATP were: —JNK1, PDK1, CHK1, CHK2, CDK2 and Aurora B. Protein kinases assayed at 50 μM ATP were: —MNK2, IKKepsilon and TBK1.
(§3) The assays were initiated with MgATP, stopped by addition of 5 μl of 0.5 M orthophosphoric acid and spotted on to P81 filterplates using a unifilter harvester (PerkinElmer, Boston, Mass. 02118, USA). The IC50 values of inhibitors were determined after carrying out assays at 10 different concentrations of each compound.
(§4) Unless stated otherwise, enzymes were diluted in 50 mM Tris/HCl pH 7.5, 0.1 mM EGTA, 1 mg/ml BSA, 0.1% (v/v) 2-mercaptoethanol and assayed in 50 mM Tris/HCl pH 7.5, 0.1 mM EGTA, 0.1% (v/v) 2-mercaptoethanol.

[2] = molecular target: T2, p38s MAPK (Homo sapiens, UniProt O15264); assay: p38s MAPK protein kinase assay; settings: for remaining activity at 10 µM: 10 μM compound; for residual kinase activity p38s MAPK: 1 μm compound; for remaining activity at 1 µM: 1 μM compound
T2 construct: All protein kinases were of human origin and encoded full length proteins, unless indicated otherwise; made in house
T2 sequence (O15264 1-365): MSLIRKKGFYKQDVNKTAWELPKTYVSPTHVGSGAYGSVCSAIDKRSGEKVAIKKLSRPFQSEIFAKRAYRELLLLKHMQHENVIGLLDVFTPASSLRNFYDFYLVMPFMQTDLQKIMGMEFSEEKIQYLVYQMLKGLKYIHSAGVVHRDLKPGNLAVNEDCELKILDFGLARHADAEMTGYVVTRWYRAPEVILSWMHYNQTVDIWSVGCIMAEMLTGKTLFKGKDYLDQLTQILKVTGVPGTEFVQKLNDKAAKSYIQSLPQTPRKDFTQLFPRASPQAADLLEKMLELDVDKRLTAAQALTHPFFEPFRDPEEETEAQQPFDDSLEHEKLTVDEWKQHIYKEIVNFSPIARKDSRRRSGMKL
Source text: as §1, §2, §3, §4

[3] = molecular target: T3, MAPKAP-K2 (Homo sapiens, UniProt P49137); assay: MAPKAP-K2 protein kinase assay; settings: for remaining activity at 10 µM: 10 μM compound; for residual kinase activity MAPKAP-K2: 1 μm compound; for remaining activity at 1 µM: 1 μM compound
T3 construct: All protein kinases were of human origin and encoded full length proteins, unless indicated otherwise; made in house
T3 sequence (P49137 46-400 limits assumed): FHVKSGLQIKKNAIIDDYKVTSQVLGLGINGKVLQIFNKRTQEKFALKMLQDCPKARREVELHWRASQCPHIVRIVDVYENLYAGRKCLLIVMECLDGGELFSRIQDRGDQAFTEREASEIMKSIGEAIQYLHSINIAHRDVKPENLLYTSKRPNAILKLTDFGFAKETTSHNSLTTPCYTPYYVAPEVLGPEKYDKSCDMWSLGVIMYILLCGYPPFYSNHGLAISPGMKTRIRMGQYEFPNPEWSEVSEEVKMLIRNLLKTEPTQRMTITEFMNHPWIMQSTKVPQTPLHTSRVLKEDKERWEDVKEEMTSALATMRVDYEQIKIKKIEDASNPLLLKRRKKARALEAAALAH
Source text: as §1, §2, §3, §4

[4] = molecular target: T4, Lck (Homo sapiens, UniProt P06239); assay: Lck protein kinase assay; settings: for remaining activity at 10 µM: 10 μM compound; for residual kinase activity Lck: 1 μm compound; for remaining activity at 1 µM: 1 μM compound
T4 construct: All protein kinases were of human origin and encoded full length proteins, unless indicated otherwise; made in house
T4 sequence (P06239 whole entry): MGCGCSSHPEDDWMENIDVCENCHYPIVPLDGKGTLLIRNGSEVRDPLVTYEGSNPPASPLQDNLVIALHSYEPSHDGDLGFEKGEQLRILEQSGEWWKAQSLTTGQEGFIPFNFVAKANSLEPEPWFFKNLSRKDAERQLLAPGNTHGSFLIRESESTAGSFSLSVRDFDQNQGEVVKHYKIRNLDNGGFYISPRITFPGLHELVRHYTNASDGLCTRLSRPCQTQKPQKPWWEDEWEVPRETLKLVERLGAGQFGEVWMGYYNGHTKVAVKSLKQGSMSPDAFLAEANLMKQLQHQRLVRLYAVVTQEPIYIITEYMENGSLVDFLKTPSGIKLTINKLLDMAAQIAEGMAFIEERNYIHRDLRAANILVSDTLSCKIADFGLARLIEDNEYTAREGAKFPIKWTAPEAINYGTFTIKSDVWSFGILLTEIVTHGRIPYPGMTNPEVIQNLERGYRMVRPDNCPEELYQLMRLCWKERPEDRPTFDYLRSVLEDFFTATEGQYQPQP
Source text: as §1, §2, §3, §4

[5] = molecular target: T5, VEG-FR (Homo sapiens, UniProt P17948); assay: VEG-FR protein kinase assay; settings: for remaining activity at 10 µM: 10 μM compound; for residual kinase activity VEG-FR: 1 μm compound; for remaining activity at 1 µM: 1 μM compound
T5 construct: All protein kinases were of human origin and encoded full length proteins, unless indicated otherwise; made in house
T5 sequence (P17948 784-1338 limits assumed): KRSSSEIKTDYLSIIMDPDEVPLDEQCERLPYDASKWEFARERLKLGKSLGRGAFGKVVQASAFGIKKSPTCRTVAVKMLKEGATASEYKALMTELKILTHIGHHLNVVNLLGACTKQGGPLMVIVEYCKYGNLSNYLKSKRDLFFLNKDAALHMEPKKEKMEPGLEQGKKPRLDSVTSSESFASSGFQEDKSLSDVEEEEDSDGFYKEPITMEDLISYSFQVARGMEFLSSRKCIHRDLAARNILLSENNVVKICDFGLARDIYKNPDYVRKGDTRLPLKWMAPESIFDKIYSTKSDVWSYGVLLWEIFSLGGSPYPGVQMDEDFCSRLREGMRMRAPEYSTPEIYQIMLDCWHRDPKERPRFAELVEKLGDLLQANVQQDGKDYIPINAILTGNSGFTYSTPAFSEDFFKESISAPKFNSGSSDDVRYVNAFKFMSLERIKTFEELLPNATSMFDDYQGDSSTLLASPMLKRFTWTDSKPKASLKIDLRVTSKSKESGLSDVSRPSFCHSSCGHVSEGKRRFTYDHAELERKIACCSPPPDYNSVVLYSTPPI
Source text: as §1, §2, §3, §4

[6] = molecular target: T6, ERK1 (Homo sapiens, UniProt P27361); assay: ERK1 protein kinase assay; settings: for remaining activity at 10 µM: 10 μM compound; for residual kinase activity ERK1: 1 μm compound; for remaining activity at 1 µM: 1 μM compound
T6 construct: All protein kinases were of human origin and encoded full length proteins, unless indicated otherwise; GST; made in house; host or cells: E. coli
T6 sequence (P27361 whole entry): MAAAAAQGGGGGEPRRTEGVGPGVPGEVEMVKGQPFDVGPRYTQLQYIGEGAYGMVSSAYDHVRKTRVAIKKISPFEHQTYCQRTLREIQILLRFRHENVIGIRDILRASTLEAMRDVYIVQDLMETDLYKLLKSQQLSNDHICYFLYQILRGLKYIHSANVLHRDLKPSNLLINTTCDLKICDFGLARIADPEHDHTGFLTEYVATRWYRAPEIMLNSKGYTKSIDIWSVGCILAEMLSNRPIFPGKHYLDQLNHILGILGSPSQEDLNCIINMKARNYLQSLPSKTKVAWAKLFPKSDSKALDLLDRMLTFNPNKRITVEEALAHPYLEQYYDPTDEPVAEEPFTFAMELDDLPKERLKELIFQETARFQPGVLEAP
Source text: as §1
The following proteins were expressed in E. coli: —CHK2[5-543], cyclin-dependent protein kinase 2 (CDK2), MAP kinase-interacting kinase 2 (MNK2), extra-cellular signal-regulated kinase 1 (ERK1).
In order to produce activated forms of Aurora B and Aurora C, insect Sf21 cells were incubated for 1 h with the protein phosphatase inhibitor okadaic acid (50 nM). JNK isoforms were activated with MKK4 and MKK7, MNK2 with p38α MAPkinase; PKBα, PKBβ, with PDK1, and ERK1 with MKK1. To activate CDK2, bacterial pellets expressing cyclin A2 and CDK2 were mixed together, lyse and purified on glutathione Sepharose. The GST-tags were removed by cleavage with PreScission protease and the CDK2-cyclin A2 complex purified by chromatography on SP-Sepharose. It was then activated with CAK1/CDK7 followed by chromatography on nickel-nitrilotriacetate agarose to remove CAK1/CDK7, which binds to this column by virtue of its C-terminal His6 tag. All the other protein kinases were active as expressed.
as §2, §3
ERK1 and ERK8 were both assayed against myelin basic protein (MBP, 0.33 mg/ml). MARK3 was assayed against the peptide […] (300 μM), MNK2 against the eIF4E protein (0.5 mg/ml). PKBβ was assayed against the peptide […] (30 μM). TBK1 were assayed against ([…]) (300 μM). The substrates used for other protein kinases were described previously.^8,9
as §4

[7] = read-out: residual kinase activity CSK
[8] = read-out: residual kinase activity p38s MAPK
[9] = read-out: residual kinase activity MAPKAP-K2
[10] = read-out: residual kinase activity Lck
[11] = read-out: residual kinase activity VEG-FR
[12] = read-out: residual kinase activity ERK1
[13] = CSK, read-out: residual kinase activity
[14] = p38s MAPK, read-out: residual kinase activity
[15] = MAPKAP-K2, read-out: residual kinase activity
[16] = Lck, read-out: residual kinase activity
[17] = VEG-FR, read-out: residual kinase activity
[18] = ERK1, 5 μM ATP, read-out: residual kinase activity

Row | SMILES | remaining activity at 10 µM [1, 7] | residual kinase activity CSK [1] | remaining activity at 10 µM [2, 8] | residual kinase activity p38s MAPK [2] | remaining activity at 10 µM [3, 9] | residual kinase activity MAPKAP-K2 [3] | remaining activity at 10 µM [4, 10] | residual kinase activity Lck [4] | remaining activity at 1 µM [1, 13] | remaining activity at 10 µM [1, 13] | remaining activity at 1 µM [2, 14] | remaining activity at 10 µM [2, 14] | remaining activity at 1 µM [3, 15] | remaining activity at 10 µM [3, 15] | remaining activity at 1 µM [4, 16] | remaining activity at 10 µM [4, 16] | remaining activity at 1 µM [5, 17] | remaining activity at 10 µM [5, 17] | remaining activity at 1 µM [6, 18] | remaining activity at 10 µM [6, 18] | other results
1 | O=C(NCCCNc1nc(Nc2cccc(F)c2)ncc1Br)C1CCC1 [Compound A, cyclobutanecarboxylic acid {3-[5-bromo-2-(3-fluoro-phenylamino)-pyrimidin-4-ylamino]-propyl}-amide, reference compound] | 51% | 86% | 15% | 55% | 48% | 82% | 10% | 57% | – | – | – | – | – | – | – | – | – | – | – | – | remaining activity at 10 µM [5, 11]: 4%; residual kinase activity VEG-FR [5]: 4%; remaining activity at 10 µM [6, 12]: 7%; residual kinase activity ERK1 [6]: 28%
2 | O=C(NCCCNc1nc(Nc2cccc(F)c2)ncc1C1CC1)C1CCC1 [Example 23, Cyclobutanecarboxylic acid {3-[5-cyclopropyl-2-(3-fluoro-phenylamino)-pyrimidin-4-ylamino]-propyl}-amide] | 69% | 77% | 72% | 77% | 86% | 77% | 37% | 86% | 77% | 69% | 77% | 72% | 77% | 86% | 86% | 37% | 81% | 27% | 88% | 75% | remaining activity at 10 µM [5, 11]: 27%; residual kinase activity VEG-FR [5]: 81%; remaining activity at 10 µM [6, 12]: 75%; residual kinase activity ERK1 [6]: 88%
3 | O=C(NCCCNc1nc(Nc2cccc(N3CCCC3=O)c2)ncc1C1CC1)c1cccs1 [Example 47, Thiophene-2-carboxylic acid (3-{5-cyclopropyl-2-[3-(2-oxo-pyrrolidin-1-yl)-phenylamino]-pyrimidin-4-ylamino}-propyl)-amide. Hydrochloride salt] | – | – | – | – | – | – | – | – | 77% | 71% | 84% | 84% | 75% | 95% | 105% | 69% | 12% | 34% | 89% | 81% | –
4 | O=C(NCCCNc1nc(Nc2cccnc2)ncc1C1CC1)c1cccs1 [Example 50, Thiophene-2-carboxylic acid {3-[5-cyclopropyl-2-(pyridin-3-ylamino)-pyrimidin-4-ylamino]-propyl}-amide] | – | – | – | – | – | – | – | – | 79% | 60% | 79% | 67% | 88% | 85% | 91% | 50% | 78% | 20% | 99% | 65% | –
